The source of these data is ChEMBL document CHEMBL3045162, “Inhibition of HIV-1 replication by a tricyclic coumarin GUT-70 in acutely and chronically infected cells” (Bioorg Med Chem Lett, 2013).

Data set [1] concerns Human immunodeficiency virus 1. Kind of data set: Antiviral activity against X4 tropic Human immunodeficiency virus 1 NL4-3 infected human Molt4 cells assessed as intracellular p24 expression at 10 uM after 7 days by flow cytometry. In kind it is functional, organism-based. As to conditions: MOLT-4.
The nature of data set [2]: Cytotoxicity against Homo sapiens (human) TZM-bl cells by MTT assay. In kind it is cell-based. (Tetrazolium assays rely on reduction of a dye to a coloured formazan, in cell work by metabolically active cells.)
Data set [3] in a line: Selectivity index, ratio of IC50 for human MOLT4 cells to EC50 for X4 tropic HIV1 NL4-3 infected in human Molt4 cells. As to conditions: read-out: Ratio IC50/EC50. In kind it is toxicity, cell-based, MOLT-4.
Data set [4] deals with Human immunodeficiency virus 1. Kind of data set: Antiviral activity against X4 tropic Human immunodeficiency virus 1 NL4-3 infected human Molt4 cells assessed as intracellular p24 expression at 10 uM after 4 days by flow cytometry. In kind it is functional, organism-based. As to conditions: MOLT-4. For orientation: Flow cytometry measures light scatter and fluorescence of single cells or particles in a stream.

Data set [5] concerns Human immunodeficiency virus 1. Description: Antiviral activity against Human immunodeficiency virus 1 infected U1 cells assessed as intracellular p24 expression after 24 hr by flow cytometry in presence of TNF-alpha. In kind it is functional, organism-based.
In data set [6] the test system is Human immunodeficiency virus 1. Description: Antiviral activity against X4 tropic Human immunodeficiency virus 1 NL4-3 infected human Molt4 cells assessed as intracellular p24 expression after 4 to 7 days by flow cytometry. Conditions: Human immunodeficiency virus 1, NL4-3, MOLT-4. In kind it is functional, organism-based.
Data set [7] deals with Transcription factor p65 (Homo sapiens) (UniProt Q04206). Description: Inhibition of NF-kappa B p65 activity in TNFalpha-treated Homo sapiens (human) U1 cells at 10 uM after 2 to 4 hr by luciferase assay. In kind it is cell-based.
In data set [8] the test system is MOLT-4. Kind of data set: Inhibition of NF-kappaB-mediated viral replication in Homo sapiens (human) Molt-4 cells infected with X4 tropic HIV1 NL4-3 at 10 uM after 24 hr by RT-PCR analysis. In kind it is cell-based.
The test system of a further data set is TZM-bl. Description: Inhibition of NF-kappaB-mediated viral replication in Homo sapiens (human) TZM-bl cells infected with X4 tropic HIV1 NL4-3 compound pre-treated for 2hr before infection measured after 24 hr by luciferase assay. In kind it is cell-based.
Data set [9] deals with Transcription factor p65 (Homo sapiens) (UniProt Q04206). Kind of data set: Inhibition of NF-kappa B p65 nuclear translocation in TNFalpha-treated Homo sapiens (human) U1 cells after 0.5 to 6 hr by Western blot analysis. In kind it is cell-based. (In general: In western blotting, separated proteins are transferred to a membrane and probed.)
For data set [10] the target is unchanged. Description: Binding affinity to NF-kappa B p65 in Homo sapiens (human) U1 nuclear extract after 0.5 to 4 hr by competitive EMSA.
Data set [11] relates to U1. Kind of data set: Cytotoxicity against Homo sapiens (human) U1 cells by MTT assay in presence of TNF-alpha. In kind it is cell-based.
The target in data set [12] is Transcription factor p65 (Homo sapiens) (UniProt Q04206). Description: Reduction in NF-kappa B p65 cytosolic level in TNFalpha-treated Homo sapiens (human) U1 cells after 0.5 to 6 hr by Western blot analysis. In kind it is cell-based.
The test system of data set [13] is U1. Kind of data set: Inhibition of NF-kappaB-mediated viral replication in Homo sapiens (human) U1 cells […] at 10 uM after 24 hr by RT-PCR analysis in presence of TNF-alpha. In kind it is cell-based.
In data set [14] the test system is MOLT-4. Description: Cytotoxicity against Homo sapiens (human) MOLT4 cells by MTT assay. In kind it is cell-based.
The test system of data set [15] is U1. Kind of data set: Cytotoxicity against Homo sapiens (human) U1 cells by MTT assay in presence of PMA. In kind it is cell-based.
Data set [16] deals with Human immunodeficiency virus 1. Kind of data set: Antiviral activity against Human immunodeficiency virus 1 infected U1 cells assessed as intracellular p24 expression after 24 hr by flow cytometry in presence of PMA. In kind it is functional, organism-based.
Data set [17] is described as follows: Selectivity index, ratio of IC50 for PMA-stimulated human U1 cells to EC50 for X4 tropic HIV1 NL4-3 infected in PMA-stimulated human U1 cells. In kind it is toxicity, cell-based. As to conditions: with X4 tropic HIV1 NL4-3, read-out: Ratio IC50/EC50.
Data set [18] can be described thus: Selectivity index, ratio of IC50 for TNF-alpha-stimulated human U1 cells to EC50 for X4 tropic HIV1 NL4-3 infected in TNF-alpha-stimulated human U1 cells. In kind it is toxicity, cell-based. Conditions: with X4 tropic HIV1 NL4-3, read-out: Ratio IC50/EC50.
The mark [19] stands for this setting: Human immunodeficiency virus 1, U1, 24 h.

pEC50, pIC50: −log10 of the molar value. Active and inactive are the calls of the source. The rule behind the calls is not given here. Where only a bound is given, the exact number is not on record here.

Transcription factor p65 (Homo sapiens), sequence (Q04206 whole entry): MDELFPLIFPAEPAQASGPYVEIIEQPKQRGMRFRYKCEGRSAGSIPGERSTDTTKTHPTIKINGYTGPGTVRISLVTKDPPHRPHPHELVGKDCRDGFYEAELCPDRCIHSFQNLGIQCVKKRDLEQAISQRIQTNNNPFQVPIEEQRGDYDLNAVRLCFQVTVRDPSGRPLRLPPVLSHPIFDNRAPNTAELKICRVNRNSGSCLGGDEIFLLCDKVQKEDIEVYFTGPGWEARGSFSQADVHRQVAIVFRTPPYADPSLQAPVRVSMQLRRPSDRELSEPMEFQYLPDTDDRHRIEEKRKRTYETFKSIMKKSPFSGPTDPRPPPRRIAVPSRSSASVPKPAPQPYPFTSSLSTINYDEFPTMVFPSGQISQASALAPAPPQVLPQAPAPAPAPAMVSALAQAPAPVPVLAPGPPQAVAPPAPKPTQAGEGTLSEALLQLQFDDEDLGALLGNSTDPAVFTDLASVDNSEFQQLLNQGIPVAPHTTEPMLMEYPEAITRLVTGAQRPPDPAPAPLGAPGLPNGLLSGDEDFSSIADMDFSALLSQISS

As for `C/C=C(\C)C(=O)c1c(OC)c2c(c3c(CCC)cc(=O)oc13)OC(C)(C)C=C2`, the outcome in data set [1], in [4] and in data set [10] was Active. Besides, the pIC50 (usually −log10 of the IC50, conventionally taken in molar units) was less than 5.00 in data set [2], 5.07 in the data set on U1 [11], less than 5.00 with MOLT-4 [14] and 5.07 in the data set on U1 [15]. Also, the selectivity ratio in [3] is more than 2.93; in [17], 2.43; in data set [18], 1.95. The Activity result in data set [5] and in data set [16] was “Dose-dependent effect” in each case. Also, the pEC50 (as a rule, the negative decadic logarithm of the EC50, by convention in mol/L) in data set [5] (setting [19]) was 5.36; in [6], 5.47; in data set [16] (setting [19]) it was 5.46. Also, the inhibition result (in data set [7]; in the data set on MOLT-4 [8]; in the data set on TZM-bl; in data set [9]; with U1 [13]) was “Active” throughout. In data set [12], the result was inactive.

As for `CC(C)(C)c1ccc(S(=O)(=O)/C=C/C#N)cc1`, the inhibition entry in the data set on U1 [13] is “Active”.

As to `CC(C)C[C@H](NC(=O)[C@H](Cc1ccccc1)NC(=O)c1cnccn1)B(O)O`, the inhibition entry in the data set with U1 [13] is “Active”.
